Test results published in US20080076751A1, “Azetidinone Derivatives and Methods of Use Thereof” (priority 2006, published 2008).

What follows are compounds tested against T1, human CaV3.2 (Homo sapiens, UniProt O95180) (assay: IonWorks screen for hCaV3.2 (T-type calcium current, voltage clamp)). Settings: IonWorks HT, HEK cells, 10 min incubation, pulse 10, 8-point curve; read-out: IW hCav3 2 IC50.
T1 construct: expressed in transfected cells
Type: cell-based
Excerpt: Functional evaluation of voltage-gated ion channels can be used to determine potency and/or single concentration efficacy of the Azetidinone Derivatives of the present invention. Two different methodologies can be used to measure ion currents: the lonWorks HT (Molecular Devices, Sunnyvale, Calif.) a moderate throughput voltage clamp screening platform that utilizes 96-well compound plates and conventional whole cell patch clamp for lower throughput, higher fidelity determinations.
HEK cells are transiently transfected and then selected for stable heterologous expression of different channel proteins of interest. Calcium channel cell lines expressed a resting potassium current, human Kir2.1, and the pore forming α-subunit of voltage-gated calcium channels. In the case of CaV2.1 cells the auxiliary subunit, β2a, is also expressed. Calcium channel lines that are used to generate the data will express either human CaV3.2, rat CaV3.2 or human CaV2.1. The human heart sodium channel, hNaV1.5, are stably expressed in CHO cells.
Cell lines can be grown at 37° C. in humidified incubators, equilibrated with 95% air/5% CO2. CHO cells can be grown in Ham's F-12 medium. HEK cells can be grown in DMEM. All media are supplemented with 10% heat-inactivated fetal bovine serum, penicillin, streptomycin and appropriate selection antibiotics (zeocin, geneticin and/or hygromycin). Cells are passaged when 80% confluent or less.
IonWorks Screen for hCaV3.2
The extracellular buffer for experiments using this instrument contained the following (mM) (NaCl 125, HEPES 10, KCl 5.4, CaCl2 1.8, MgCl2 1.8, 0.2 BaCl2 pH 7.35). The lonWorks uses amphotericin to gain electrical access to the cell interior. The internal solution contained (mM concentrations): 130 K-gluconate, 20 KCl, 5 HEPES-KOH (pH 7.25), 2 CaCl2, 1 MgCl2. Amphotericin added at 5 mg in 65 mL when present (in 650 μL DMSO). All internal and external solutions for this experiment contain 1% DMSO. Cells were acutely trypsinized from a T-75 flask and resuspended in extracellular buffer at a density of 2×10^5 cells/mL.
Experiments were performed at room temperature. Transmembrane potential was held at −100 mV for 5 seconds prior to running the voltage protocol. During this time leak currents were measured during a step to −110 mV (200 milliseconds). T-type calcium currents were activated with a 250 millisecond step to −20 mV. This depolarization step was repeated for a total of 10 pulses with an interpulse interval of 1 second. Data were excluded if the following acceptance criteria were not met: total resistance for the pre-compound scan>65 MΩ, pre-compound current>250 pA, post compound total resistance>50 MΩ.
T-type currents were measured as the peak inward current minus the current at the end of the 250 msec step to −20 mV. After the recoding configuration was established there was a pre-compound measurement of current amplitude. Compound was added as a 3× solution containing 1% DMSO. After incubation with compound for 10 minutes currents were measured again. The current amplitude after compound addition was divided by the pre-compound current for pulse 10 to determine the fraction of current remaining after compound addition. For each compound, 8-point concentration-effect relationships were measured with ½ log serial dilutions.

T1 sequence (O95180 whole entry): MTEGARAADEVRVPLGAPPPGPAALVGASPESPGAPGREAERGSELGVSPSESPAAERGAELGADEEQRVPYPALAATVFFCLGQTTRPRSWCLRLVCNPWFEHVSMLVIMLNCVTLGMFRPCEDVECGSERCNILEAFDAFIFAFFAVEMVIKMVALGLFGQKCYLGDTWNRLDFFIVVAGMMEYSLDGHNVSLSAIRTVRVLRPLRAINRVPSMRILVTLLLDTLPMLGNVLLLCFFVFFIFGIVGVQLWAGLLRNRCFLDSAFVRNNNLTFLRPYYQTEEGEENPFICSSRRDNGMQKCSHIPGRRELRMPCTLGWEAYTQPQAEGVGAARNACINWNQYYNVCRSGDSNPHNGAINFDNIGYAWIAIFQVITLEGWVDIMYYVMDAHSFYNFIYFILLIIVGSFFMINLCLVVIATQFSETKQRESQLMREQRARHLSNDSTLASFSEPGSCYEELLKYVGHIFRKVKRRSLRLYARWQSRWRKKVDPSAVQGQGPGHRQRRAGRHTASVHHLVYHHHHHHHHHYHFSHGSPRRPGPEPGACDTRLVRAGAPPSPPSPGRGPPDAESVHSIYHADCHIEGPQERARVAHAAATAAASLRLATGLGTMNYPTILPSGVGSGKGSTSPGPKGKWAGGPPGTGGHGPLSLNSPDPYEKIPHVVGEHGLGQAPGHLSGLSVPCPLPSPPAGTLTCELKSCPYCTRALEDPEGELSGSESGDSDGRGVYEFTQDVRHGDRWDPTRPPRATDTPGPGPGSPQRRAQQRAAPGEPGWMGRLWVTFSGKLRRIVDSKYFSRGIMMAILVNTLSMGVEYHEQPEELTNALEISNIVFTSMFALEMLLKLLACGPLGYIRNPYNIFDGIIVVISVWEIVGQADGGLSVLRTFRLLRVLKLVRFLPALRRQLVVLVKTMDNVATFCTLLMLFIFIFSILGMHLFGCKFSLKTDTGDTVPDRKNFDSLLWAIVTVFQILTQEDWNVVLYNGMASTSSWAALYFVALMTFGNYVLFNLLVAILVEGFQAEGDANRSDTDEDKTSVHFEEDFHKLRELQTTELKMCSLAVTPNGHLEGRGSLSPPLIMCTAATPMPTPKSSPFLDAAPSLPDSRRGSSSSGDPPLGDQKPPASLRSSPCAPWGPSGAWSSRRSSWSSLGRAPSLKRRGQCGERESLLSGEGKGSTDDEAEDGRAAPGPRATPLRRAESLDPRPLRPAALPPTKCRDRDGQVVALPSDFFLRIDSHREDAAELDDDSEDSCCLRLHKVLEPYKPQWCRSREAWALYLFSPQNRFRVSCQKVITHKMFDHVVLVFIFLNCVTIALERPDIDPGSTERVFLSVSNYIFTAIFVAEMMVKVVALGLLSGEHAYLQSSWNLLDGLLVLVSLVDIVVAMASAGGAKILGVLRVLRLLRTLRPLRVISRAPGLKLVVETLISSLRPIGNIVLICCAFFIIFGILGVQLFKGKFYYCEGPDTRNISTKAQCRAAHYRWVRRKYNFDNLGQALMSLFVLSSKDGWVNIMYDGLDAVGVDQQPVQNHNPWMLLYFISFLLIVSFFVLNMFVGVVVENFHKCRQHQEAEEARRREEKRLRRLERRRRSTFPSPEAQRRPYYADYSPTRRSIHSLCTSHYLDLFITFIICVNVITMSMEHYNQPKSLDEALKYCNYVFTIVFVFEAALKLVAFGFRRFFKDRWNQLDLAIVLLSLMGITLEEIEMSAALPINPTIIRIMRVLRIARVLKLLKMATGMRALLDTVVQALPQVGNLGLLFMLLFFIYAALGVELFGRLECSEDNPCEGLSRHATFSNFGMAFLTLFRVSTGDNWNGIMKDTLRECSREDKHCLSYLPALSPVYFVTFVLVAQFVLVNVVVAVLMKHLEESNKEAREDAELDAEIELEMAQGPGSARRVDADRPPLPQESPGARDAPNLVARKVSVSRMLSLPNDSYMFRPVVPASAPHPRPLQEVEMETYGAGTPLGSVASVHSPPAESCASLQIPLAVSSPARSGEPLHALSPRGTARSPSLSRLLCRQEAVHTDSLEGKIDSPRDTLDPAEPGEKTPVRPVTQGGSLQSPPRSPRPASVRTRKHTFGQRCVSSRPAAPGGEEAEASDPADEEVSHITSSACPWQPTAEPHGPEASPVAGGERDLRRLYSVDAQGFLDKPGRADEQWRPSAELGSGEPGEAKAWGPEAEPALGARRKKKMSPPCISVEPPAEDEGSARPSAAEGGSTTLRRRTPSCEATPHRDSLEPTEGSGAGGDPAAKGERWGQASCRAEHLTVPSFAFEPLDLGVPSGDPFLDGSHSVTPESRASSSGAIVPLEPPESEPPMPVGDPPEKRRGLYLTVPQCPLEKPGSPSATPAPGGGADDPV

SMILES	IC50 [µM]
CC[C@H](C)[C@H](NC(=O)N1CCC2(CC1)C(=O)N(c1cncnc1)C2c1ccccn1)C(=O)OC (stereo partly drawn)	2.61
CS(=O)(=O)c1ccccc1N1C(=O)C2(CCN(C(=O)Nc3cc(F)cc(F)c3)CC2)C1c1ccc(Cl)cc1 (stereo not drawn)	0.094
CCC(C)[C@H](NC(=O)N1CCC2(CC1)C(=O)N(c1ccc(F)c(Cl)c1)C2c1ccc(-c2cccnc2)cn1)C(=O)OC (stereo partly drawn)	0.577
CC(NC(=O)N1CCC2(CC1)C(=O)N(c1cccc(F)c1)C2c1ccc(Cl)cc1)c1cccnc1 (stereo not drawn)	2.46
C[C@H](NC(=O)N1CCC2(CC1)C(=O)N(c1cncnc1)C2c1ccccn1)c1ccc(F)cc1 (stereo partly drawn)	2.01
N#Cc1cccc(NC(=O)N2CCC3(CC2)C(=O)N(c2cncc(Cl)c2)C3c2ccccn2)c1 (stereo not drawn)	1.48
N#Cc1cccc(NC(=O)N2CCC3(CC2)C(=O)N(c2ccc(F)c(Cl)c2)C3c2ccccn2)c1 (stereo not drawn)	0.358
N#Cc1cccc(NC(=O)N2CCC3(CC2)C(=O)N(c2cccc(Cl)c2)C3c2cccnc2)c1 (stereo not drawn) [drawing 643]	1.66
N#Cc1cc(F)cc(NC(=O)N2CCC3(CC2)C(=O)N(c2ccc(F)c(Cl)c2)C3c2ccccn2)c1 (stereo not drawn) [drawing 565]	0.0175
N#Cc1cccc(N2C(=O)C3(CCN(C(=O)Nc4cccc(C(F)(F)F)c4)CC3)C2c2ccccn2)c1 (stereo not drawn) [drawing 567]	0.371
O=C(Nc1cc(F)cc(F)c1)N1CCC2(CC1)C(=O)N(c1cccc(Cl)c1)C2c1cccc[n+]1O (stereo not drawn)	0.157
C[C@H](NC(=O)N1CCC2(CC1)C(=O)N(c1ccccc1S(C)(=O)=O)C2c1ccc(Cl)cc1)c1ccc(F)cc1 (stereo partly drawn)	0.611
CC(C)CN1C(=O)C2(CCN(C(=O)N[C@@H](C)c3ccc(F)cc3)CC2)C1c1ccc(Cl)cc1 (stereo partly drawn)	1.83
CC(NC(=O)N1CCC2(CC1)C(=O)N(c1cccc(F)c1)C2c1ccc(Cl)cc1)c1ccncc1 (stereo not drawn)	0.694
C[C@H](NC(=O)N1CCC2(CC1)C(=O)N(c1cccc(Cl)c1)C2c1cccnc1)c1ccc(F)cc1 (stereo partly drawn) [drawing 611]	0.225
COC(=O)[C@H](C)NC(=O)N1CCC2(CC1)C(=O)N(c1cccc(F)c1)C2c1ccc(Cl)cc1 (stereo partly drawn)	0.827
CC[C@H](C)[C@H](NC(=O)N1CCC2(CC1)C(=O)N(c1cccc(F)c1)C2c1ccc(Cl)cc1)C(=O)OC(C)C (stereo partly drawn)	0.045
C[C@@H](NC(=O)N1CCC2(CC1)C(=O)N(c1cccc(F)c1)C2c1ccc(Cl)cc1)c1ccc(F)cc1 (stereo partly drawn)	0.675
O=C(Nc1cc(F)cc(F)c1)N1CCC2(CC1)C(=O)N(c1cncc(Cl)c1)C2c1ccccn1 (stereo not drawn)	0.518
O=C(Nc1cc(F)cc(F)c1)N1CCC2(CC1)C(=O)N(c1cccc(F)c1)C2c1ccc(Cl)cc1 (single isomer, unassigned)	0.39

SMILES	IC50 [µM]
N#Cc1cncc(N2C(=O)C3(CCN(C(=O)Nc4cccc(C(F)(F)F)c4)CC3)C2c2ccccn2)c1 (stereo not drawn)	1.26
CC[C@H](C)[C@@H](C#N)NC(=O)N1CCC2(CC1)C(=O)N(c1cccc(F)c1)C2c1ccc(Cl)cc1 (stereo partly drawn)	0.035
O=C(Nc1cccnc1)N1CCC2(CC1)C(=O)N(c1cccc(Cl)c1)C2c1ccccn1 (stereo not drawn)	1.12
O=C(Nc1cc(F)cc(F)c1)N1CCC2(CC1)C(=O)N(c1ccccn1)C2c1ccccn1 (stereo not drawn)	1.16
CCC(C)[C@H](NC(=O)N1CCC2(CC1)C(=O)N(c1ccc(F)c(Cl)c1)C2c1ccc(Br)cn1)C(=O)OC (stereo partly drawn)	0.1
CC[C@H](C)[C@H](NC(=O)N1CCC2(CC1)C(=O)N(c1cccc(F)c1)C2c1ccc(Cl)cc1)C(=O)OC (single isomer, unassigned)	0.057
CC[C@H](NC(=O)N1CCC2(CC1)C(=O)N(c1cccc(F)c1)C2c1ccc(Cl)cc1)c1ccccc1 (stereo partly drawn)	0.224
O=C(Nc1cccc(F)c1)N1CCC2(CC1)C(=O)N(c1ccc(F)c(Cl)c1)C2c1ccccn1 (stereo not drawn)	0.371
C[C@H](NC(=O)N1CCC2(CC1)C(=O)N(c1cccc(F)c1)C2c1ccc(Cl)cc1)c1ccccc1 (stereo partly drawn)	0.139
O=C(Nc1cccc(C(F)(F)F)c1)N1CCC2(CC1)C(=O)N(c1cccc(Cl)c1)C2c1ccccn1 (stereo not drawn) [drawing 563]	0.0955
C[C@H](NC(=O)N1CCC2(CC1)C(=O)N(c1cccc(Cl)c1)C2c1cccnc1)c1ccc(F)cc1 (stereo partly drawn) [drawing 637]	0.669
N#Cc1cccc(N2C(=O)C3(CCN(C(=O)Nc4cc(F)cc(F)c4)CC3)C2c2ccccn2)c1 (stereo not drawn) [drawing 586]	0.247
O=C(Nc1cccc(C(F)(F)F)c1)N1CCC2(CC1)C(=O)N(c1ccc(F)c(Cl)c1)C2c1ccccn1 (stereo not drawn) [drawing 561]	0.083
N#Cc1cccc(N2C(=O)C3(CCN(C(=O)Nc4cc(F)cc(F)c4)CC3)C2c2ccccn2)c1 (stereo not drawn) [drawing 585]	0.732
C[C@H](NC(=O)N1CCC2(CC1)C(=O)N(c1cncc(Cl)c1)C2c1ccccn1)c1ccc(F)cc1 (stereo partly drawn)	3.24
O=C(Nc1cccc(C(F)(F)F)c1)N1CCC2(CC1)C(=O)N(c1cccc(Cl)c1)C2c1ccccn1 (stereo not drawn) [drawing 564]	0.0195
CC[C@H](C)[C@H](NC(=O)N1CCC2(CC1)C(=O)N(c1cccc(Cl)c1)C2c1ccccn1)C(=O)OC (stereo partly drawn) [drawing 572]	0.635
N#Cc1cccc(NC(=O)N2CCC3(CC2)C(=O)N(c2cccc(Cl)c2)C3c2cccnc2)c1 (stereo not drawn) [drawing 634]	0.124
N#Cc1cccc(N2C(=O)C3(CCN(C(=O)Nc4cccc(C(F)(F)F)c4)CC3)C2c2ccccn2)c1 (stereo not drawn) [drawing 568]	0.051
N#Cc1cccc(NC(=O)N2CCC3(CC2)C(=O)N(c2cccc(C#N)c2)C3c2ccccn2)c1 (stereo not drawn) [drawing 594]	1.17

SMILES	IC50 [µM]
CC[C@H](C)[C@H](NC(=O)N1CCC2(CC1)C(=O)N(c1cccc(Cl)c1)C2c1cccnc1)C(=O)OC (stereo partly drawn) [drawing 641]	1.3
CC[C@H](C)[C@H](NC(=O)N1CCC2(CC1)C(=O)N(c1cccc(Cl)c1)C2c1ccccn1)C(=O)OC (stereo partly drawn) [drawing 571]	0.584
COC(=O)[C@H](COC(C)(C)C)NC(=O)N1CCC2(CC1)C(=O)N(c1cccc(F)c1)C2c1ccc(Cl)cc1 (stereo partly drawn)	0.251
CC[C@H](C)[C@H](NC(=O)N1CCC2(CC1)C(=O)N(c1ccccc1S(C)(=O)=O)C2c1ccc(Cl)cc1)C(=O)OC (stereo partly drawn)	0.109
O=C(Nc1cc(F)cc(F)c1)N1CCC2(CC1)C(=O)N(c1cncc(F)c1)C2c1ccccn1 (stereo not drawn)	2.1
CCC(C)[C@H](NC(=O)N1CCC2(CC1)C(=O)N(c1ccc(F)c(Cl)c1)C2c1ccc(-c2ccccc2)cn1)C(=O)OC (stereo partly drawn)	0.084
CC(NC(=O)N1CCC2(CC1)C(=O)N(c1cccc(Cl)c1)C2c1ccccn1)c1ccc(F)cc1 (stereo not drawn) [drawing 576]	0.191
CCC(C)[C@H](NC(=O)N1CCC2(CC1)C(=O)N(c1ccc(F)c(Cl)c1)C2c1ccc(C#N)cn1)C(=O)OC (stereo partly drawn)	0.26
CCC(C)[C@H](NC(=O)N1CCC2(CC1)C(=O)N(c1ccc(F)c(Cl)c1)C2c1ccc(-c2ccncc2)cn1)C(=O)OC (stereo partly drawn)	0.634
O=C(Nc1cccc(C(F)(F)F)c1)N1CCC2(CC1)C(=O)N(c1ccc(F)c(Cl)c1)C2c1ccccn1 (stereo not drawn) [drawing 560]	0.00433
CC[C@H](C)[C@H](NC(=O)N1CCC2(CC1)C(=O)N(c1cccc(F)c1)C2c1ccc(Cl)cc1)C(=O)NC (stereo partly drawn)	0.182
N#Cc1cccc(NC(=O)N2CCC3(CC2)C(=O)N(c2cccc(F)c2)C3c2ccc(Cl)cc2)c1 (single isomer, unassigned)	0.183
C[C@H](NC(=O)N1CCC2(CC1)C(=O)N(c1cncnc1)C2c1ccc(Cl)cc1)c1ccc(F)cc1 (stereo partly drawn)	2.33
O=C(Nc1cc(F)cc(F)c1)N1CCC2(CC1)C(=O)N(c1ccc(F)c(Cl)c1)C2c1ccc(Br)cn1 (stereo not drawn)	0.0525
O=C(Nc1cc(F)cc(F)c1)N1CCC2(CC1)C(=O)N(c1cccc(Cl)c1)C2c1cccnc1 (stereo not drawn) [drawing 636]	0.42
N#Cc1cccc(NC(=O)N2CCC3(CC2)C(=O)N(c2cccc(C#N)c2)C3c2ccccn2)c1 (stereo not drawn) [drawing 593]	2.91
C[C@H](NC(=O)N1CCC2(CC1)C(=O)N(c1ccc(F)c(Cl)c1)C2c1ccc(Br)cn1)c1ccc(F)cc1 (stereo partly drawn)	0.136
O=C(Nc1cccc(Cl)c1)N1CCC2(CC1)C(=O)N(c1ccc(F)c(Cl)c1)C2c1ccccn1 (stereo not drawn)	0.185
O=C(Nc1cccc(C(F)(F)F)c1)N1CCC2(CC1)C(=O)N(c1cncc(Cl)c1)C2c1ccccn1 (stereo not drawn) [drawing 562]	0.155
O=C(NCc1cccc(F)c1)N1CCC2(CC1)C(=O)N(c1cccc(F)c1)C2c1ccc(Cl)cc1 (stereo not drawn)	0.538
